Like-named read-outs stand apart in the source and are kept apart here.

Assay [1] relates to serum cholesterol. The assay can be described thus: Serum cholesterol in normal CF1 mice (Example 10). The format is in vivo, CF1 male mice. Particulars: Mus musculus, 20 mg/kg/day ip. The method, then:
(§1) The ten compounds listed in Table II below were tested for their hypolipidemic activity in CF1 mice.
(§2) Compounds A-J as defined above, were suspended in an aqueous 1percent carboxymethylcellulose (CMC) solution and homogenized. Each of the so prepared compounds were administered to a group of six CF1 male mice, each weighing approximately 25 grams, intraperitioneally for 16 days. Each of these compounds were provided in a dosage of 20 mg/kg/day ip. On Days 9 and 16 blood was obtained by tail vein bleeding. The blood serum so obtained was separated by centrifugation for three minutes. Serum cholesterol levels were determined by a modification of the Liebermann-Burchard reaction (Ness, Clin. Chim. Acta., Vol. 10, 229[1964]). Serum triglyceride levels were determined on Day 16 by use of the Fisher, Hycel Triglyceride Test Kit.
(§3) In addition to the above-described treated mice, an untreated control group of six mice were similarly tested on Days 9 and 16 to determine their serum cholesterol and trigylceride blood levels. Based on the results obtained for the untreated control group, the percent control, based on serum cholesterol and serum triglyceride levels of the treated mice compared to the untreated mice, was obtained. Table III reports this percent control, including standard deviation, indicating the level of confidence of these numbers.

The test system of assay [2] is serum triglyceride. The assay can be described thus: Serum triglyceride in normal CF1 mice (Example 10). In kind it is in vivo, CF1 male mice. The conditions noted are these: Mus musculus, 384 h, 20 mg/kg/day ip, Day 16, ± standard deviation, read-out: Serum Triglyceride, Day 16 (percent control). The method, then:
as §1, §2, §3

Assay [3] deals with serum cholesterol. The assay can be described thus: Serum cholesterol in hyperlipidemic mice on atherogenic diet (Example 11). The format is in vivo, CF1 male mice. The conditions noted are these: hyperlipidemic CF1 mice, 20 mg/kg/day ip, Day 14, from 375 mg %. The method, then:
(§4) A group of six CF^1 male mice (about 25 g) was placed on a commercial diet (U.S. Biochemical Corporation BAsal Atherogenic Test Diet) which produced a "hyperlipidemic" state. That is, the average serum cholesterol level in the group of treated mice was raised from 122 to 375 mg % and triglyceride levels were raised from 137 to 367 mg/dl.
(§5) Upon reaching these hyperlipidemic levels, the mice were administered Compound D in a concentration of 20 mg/kg/day intraperitoneally for 14 days while continuing the diet. On Day 14, serum cholesterol and serum triglyceride levels were measured in accordance with the procedure of Example 10.

Assay [4] relates to serum triglyceride. The assay can be described thus: Serum triglyceride in hyperlipidemic mice on atherogenic diet (Example 11). The format is in vivo, CF1 male mice. The conditions noted are these: hyperlipidemic CF1 mice, 20 mg/kg/day ip, Day 14, from 367 mg/dl. The method, then: as §4, §5
The test system of assay [5] is serum cholesterol. The assay can be described thus: Serum cholesterol in normal rats (Example 12). In kind it is in vivo, Sprague-Dawley male rats. The conditions noted are these: 20 mg/kg/day orally. How it is done:
(§6) A solution of Compound D, 2-(3,4,5-trimethoxybenzoyl)-4,4-diethylisoxazolidine-3,5-dione, was suspended in an aqueous solution of 1% CMC, homogenized and administered orally to six Sprague-Dawley male rats, which each weighed approximately 350 grams. Similarly, six Sprague-Dawley male rats of approximately the same weight were administered similar volumes of the same aqueous 1% CMC solution without the active agent, Compound D, also orally. In each case, administration was by intubation needle at 20 mg/kg/day for 14 days. In addition, as a control, a similar group of six male Sprague-Dawley rats were untreated.
(§7) On Days 7 and 14, blood was obtained from each of the rats of the three groups by tail vein bleeding. The blood obtained was separated by centrifugation for three minutes. Serum cholesterol and triglyceride levels were determined in accordance with the procedure of Example 10.

Assay [6] deals with serum triglyceride. Description: Serum triglyceride in normal rats (Example 12). In kind it is in vivo, Sprague-Dawley male rats. Particulars: 20 mg/kg/day orally. The method, then: as §6, §7
The test system of assay [7] is plasma lipid level. The conditions noted are these: rats; cited from earlier work.
The mark [8] stands for this setting: 216 h, Day 9, ± standard deviation, read-out: Serum Cholesterol, Day 9 (percent control).
Setting [9] is: 384 h, Day 16, ± standard deviation, read-out: Serum Cholesterol, Day 16 (percent control).

With `C=C(C)N1OC(=O)C(CC)(CC)C1=O` [A], the response vs control in vivo at 20 mg/kg/day in assay [1] (setting [8]) was found to be 70 ± 7%; in assay [1] (setting [9]) it was 75 ± 4%; in assay [2] it was 71 ± 6%.

Consider `C=C(c1ccccc1)N1OC(=O)C(CC)(CC)C1=O` [B, 2-(1-phenylethenyl)-4,4-diethylisoxazolidine-3,5-dione], for which the response vs control in vivo at 20 mg/kg/day is 71 ± 5% in assay [1] (setting [8]), 63 ± 6% in assay [1] (setting [9]) and 71 ± 4% in assay [2].

As to `CCC1(CC)C(=O)ON(C2(N3OC(=O)C(CC)(CC)C3=O)CCCCC2)C1=O` [C, 1,1-bis-[2-(4,4-diethylisoxazolidine-3,5-dione)]cyclohexane], the values for the response vs control in vivo at 20 mg/kg/day in assay [1] (setting [8]), in assay [1] (setting [9]) and in assay [2] were 86 ± 7%, 73 ± 7% and 77 ± 9%, respectively.

As for `CCC1(CC)C(=O)ON(C(=O)c2cc(OC)c(OC)c(OC)c2)C1=O` [Compound D, 2-(3,4,5-trimethoxybenzoyl)-4,4-diethylisoxazolidine-3,5-dione], the response vs control in vivo at 20 mg/kg/day in assay [1] (setting [8]) is 82 ± 6%. For the same molecule, the response vs control in vivo at 20 mg/kg/day in assay [1] (setting [9]) worked out at 51 ± 5%. For the same molecule, the response vs control in vivo at 20 mg/kg/day in assay [2] came to 66 ± 6%. In assay [3], the “serum cholesterol level after treatment” value came out at 150 mg % and the “serum cholesterol remaining, percent of pre-treatment level” value was found to be 40%. Further, in assay [4], the “serum triglyceride level after treatment” value was 187 mg/dL and the “serum triglyceride level remaining, percent of pre-treatment level” value is on record as 51%. For the same molecule, the “serum cholesterol level compared to control rats, Day 7” value in assay [5] (Day 7) came out at 77%. In addition, the “serum cholesterol level compared to control rats, Day 14” value in assay [5] (Day 14) came out at 61%. In addition, the “average serum triglyceride level compared to control, Day 7” value in assay [6] (Day 7) is given as 64%. Further, the “serum triglyceride level compared to control, Day 14” value in assay [6] (Day 14) was determined as 43%.

As for `CCC1(CC)C(=O)ON(C(=O)c2ccccc2)C1=O` [E, 2-benzoyl-4,4-diethylisoxazolidine-3,5-dione], the response vs control in vivo at 20 mg/kg/day was 77 ± 5% in assay [1] (setting [8]), 53 ± 6% in assay [1] (setting [9]) and 63 ± 7% in assay [2].

`CCC1(CC)C(=O)ON(C(C)(C)N2OC(=O)C(CC)(CC)C2=O)C1=O` [F, 2,2-bis-[2-(4,4-diethylisoxazolidine-3,5-dione)]propane]: the response vs control in vivo at 20 mg/kg/day was determined as 95 ± 4% in assay [1] (setting [8]), 57 ± 6% in assay [1] (setting [9]) and 68 ± 8% in assay [2].

Turning to `CCC1(CC)C(=O)ON(C(=O)c2ccc(OC)c(OC)c2)C1=O` [G, 2-(3,4-dimethoxybenzoyl)-4,4-diethylisoxazolidine-3,5-dione], the response vs control in vivo at 20 mg/kg/day in assay [1] (setting [8]) stood at 81%; in assay [1] (setting [9]), 77%; in assay [2] it was 84%.

With `CCC1(CC)C(=O)ON(C(=O)c2ccc(OC)cc2)C1=O` [H, 2-(4-methoxybenzoyl)-4,4-diethylisoxazolidine-3,5-dione], the response vs control in vivo at 20 mg/kg/day in assay [1] (setting [8]) turned out to be 89%; in assay [1] (setting [9]) it was 62%; in assay [2], 63%.

`CCC1(CC)C(=O)ON(C(=O)c2ccc(C)cc2)C1=O` [I, 2-(4-methylbenzoyl)-4,4-diethylisoxazolidine-3,5-dione]: the response vs control in vivo at 20 mg/kg/day in assay [1] (setting [8]) turned out to be 73%; in assay [1] (setting [9]), 46%; in assay [2], 86%.

As for `CCC1(CC)C(=O)ON(C(=O)c2ccc(Cl)cc2)C1=O` [J, 2-(4-chlorobenzoyl)-4,4-diethylisoxazolidine-3,5-dione], the values for the response vs control in vivo at 20 mg/kg/day in assay [1] (setting [8]), in assay [1] (setting [9]) and in assay [2] were 64%, 45% and 76%, respectively.

For the molecule `O=C(O)c1cc(=O)[nH]c(=O)[nH]1` [orotic acid], the plasma lipid level result in assay [7] was “decrease the plasma lipid level in rats”.

Values taken from patent publication US4999366A, “Isoxazolidine-3,5-diones, pharmaceutical compositions and method of treatment” (The North Carolina Central Univ., priority 1990, dated 1991).
